Experimental data: patent US4110321A, “Synthetic tridecapeptide [Gln^4 ]-neurotensin having hormonal activity” (priority 1977, dated 1978)
Where no end group is shown, it is not given here.

Assays:
[1] = test system: anesthetized dogs; assay: Heart, blood flow, blood glucose and lipolysis in anesthetized dogs; format: in vivo, dog
Description: [Gln^4 ]-neurotensin ([Gln]^4 -NT) has also been studied on the heart and on the blood from in subcutaneous adipose tissue, skin, and small intestine in anesthetized dogs. In addition, its possible action has been investigated on blood glucose concentration and lypolysis in subcutaneous adipose tissue.

[2] = test system: canine fundic, antral and intestinal pouches; assay: Spontaneous motor activity in isolated canine fundic, antral and intestinal pouches; format: in vivo, dog; conditions: intravenous infusion for 30 min
Procedure: The action of [Gln^4 ]-neurotensin was tested on the spontaneous motor activity in isolated canine fundic, antral and intestinal pouches. All of these pouches had been prepared more than 6 months prior to the testing. […] The gastro-intestinal tract appears to be the principal target organ for [Gln^4 ]-neurotensin, and is a basis for clinical use of [Gln^4 ]-neurotensin in patients having diseases of gastroenterology (S. Andersson, M.D. S. Rosell M.D., U. Hjelmquist M.D., D. Chang Ph.D. and K. Folkers Ph.D., Gastroenterology, in press).

[3] = test system: guinea pig ileum; assay: Contraction of Guinea Pig Ileum; conditions: ileum segments in Tyrode's solution at 37°
Procedure: Freshly dissected segments of guinea pig ileum were suspended in a 40 ml bath which was maintained at 37° and serated with a mixture of O2 --CO2 (95:5), and containing Tyrode's solution.

[4] = Simulation of isolation steps: stability in acetone 1 N HCl at 37° C.; format: physicochemical
Procedure: Toward simulation of these isolation steps, both in terms of temperature and the concentration of hydrochloric acid, 2 mg of synthetic [Gln^4 ]-neurotensin was dissolved in a mixture of acetone 1 N HCl (100:3 v/v), and this solution was maintained at 37° C. for 12 hours which can be presumed to be less than the time of the original large scale operation at the New England Enzyme Center in Boston. An aliquot of the solution was taken for thin layer electrophoresis on cellulose plates (160 microns, Eastman Chromatographic sheet) at 500 volts in pyridine-acetate buffer, pH 6.5. The major spot on the plate corresponded to [Gln^4 ]-neurotensin.However, a new and minor spot moving toward the cathode was present which had the same TLC retention time as neurotensin. The solution was allowed to stand overnight, and it was then maintained again at 37° for a second 12-hr period. […] The minor spot had increased during the second 12-hr period. The remaining solution was concentrated under reduced pressure at room temperature to remove acetone, and the aqueous residue was then lyophilized. The residual white powder was subjected to thin layer electrophoresis on cellulose plates and pyridine acetate buffer at pH 6.5 and at 500 volts. […] The Rf values were identical with those of an authentic specimen of [Gln^4 ]-neurotensin as follows: Rf^1 0.25; Rf^2 0.89; Rf^3 0.50; Rf^4 0.42; Rf^5 0.21; and Rf^6 0.98.
In the second experiment 10 mg of pure [Gln^4 ]-neurotensin was dissolved in a mixture of acetone 1 N HCl (100:3 v/v), and the solution was maintained at 37° C. for 27 hours to simulate again the steps of isolation which are being critiqued. This time, 3 spots were observed on electrophoretic analysis of an aliquot of the solution which had been maintained at 37° for 27 hrs. Preparative thin layer electrophoresis, extraction, and workup yielded 4.2 mg of recovered [Gln^4 ]-neurotensin and 4.3 mg of neurotensin. The third and much weaker spot was due to only a trace amount of another peptide which presumably resulted from further hydrolysis. […] The fact that in these two experiments, not all of the [Gln^4 ]-neurotensin was converted to neurotensin is relatively unimportant, because these experiments on hydrolysis of the pure [Gln^4 ]-neurotensin only simulates the conditions of processing of 20-45 kg of hypothalamic tissue.

[5] = test system: rats; assay: Hyperglycemic Assay; format: in vivo, rat; conditions: 15 minutes after injection
Procedure: Rats weighing 100-125 g were anesthetized with pentobarbital (50 mg/kg). The test samples were dissolved in 0.85% saline and administered via a tail vein. Each animal was killed by decapitation 15 minutes after injection and plasma glucose levels were measured by the method of Ceriotti and Frank. […] The plasma glucose values are given in mg %.

[6] = test system: rabbit anti-NT serum; assay: Radioimmunoassay; format: binding; conditions: I^125 -NT, two rabbit antisera, pH 7.4, 4° C.
Procedure: Two antisera were used in these assays. One has been characterized as being directed solely toward the COOH-terminus, and the other requires most of the molecule.
The radioimmunoassay method used was an equilibrium system carried out at pH 7.4 in 10 × 75 mm disposable flint glass tubes and employing PBS-gel as diluent. […] The mixtures were allowed to stand at 4° C. for 18-24 hours. The "bound" (B) and "free" (F) trace were separated at 4° C. by the rapid addition of 1.0 ml of a 1:4 dilution of a stock suspension of charcoal (2.5%) and dextran T-70 (0.25%) in PBS to each tube. The tubes were immediately centrifuged for 20 min at 2000 rpm (PRJ-Universal), and the supernatant fluids were decanted into new tubes. […] "Damage" was usually 2-4% and using antisera at a final dilution of 1:10,000 gave 50-70% binding. All unknowns were assayed in duplicate at three dilutions so as to span the sensitive portion of the curve. The results were obtained by averaging the concentrations determined at each dilution provided that they agreed within 20%.

[7] = test system: rats; assay: Hypotensive Assay; format: in vivo, rat; conditions: rats anesthetized with pentobarbital; 50 picomoles/100 g body weight via tail vein
Procedure: Systemic blood pressure was measured with a Hewlett-Packard recorder and pressure transducer (preamplifier 8805 B, recorder 7782 A, transducer 267 BC) following cannulations of the carotid artery in rats weighing 200-250 g and anesthetized with pentobarbital (50 mg/kg). The test samples were dissolved in 0.85% saline and administered via a tail vein.

[8] = 10 mg in acetone 1 N HCl (100:3 v/v), 27 hours

Compound: Substance P (RPKPQQFFGLM-NH2; UniProt P20366 58-68, looked up) [another polypeptide extracted from the hypothalamus, reference compound]
- action in the peripheral vasculature ([1]; anesthetized dogs): hypotension and pronounced vasodilation and no vasoconstrictor or metabolic actions

Compound: CC[C@H](C)[C@H](NC(=O)[C@H](Cc1ccc(O)cc1)NC(=O)[C@@H]1CCCN1C(=O)[C@H](CCCNC(=N)N)NC(=O)[C@H](CCCNC(=N)N)NC(=O)[C@@H]1CCCN1C(=O)[C@H](CCCCN)NC(=O)[C@H](CC(N)=O)NC(=O)[C@H](CCC(N)=O)NC(=O)[C@H](Cc1ccc(O)cc1)NC(=O)[C@H](CC(C)C)NC(=O)[C@@H]1CCC(=O)N1)C(=O)N[C@@H](CC(C)C)C(=O)O [[Gln^4]-NT]
- dose inducing significant motor inhibition, vagally innervated antral pouches [2]: 6.3 ng/kg/min
- dose inhibiting motor activity, vagally denervated fundic pouches [2]: above 25 ng × kg^-1 × min^-1
- Contraction of Guinea Pig Ileum, potency [3]: about equivalent potency
- recovered [Gln^4 ]-neurotensin ([4]; 2 mg in acetone 1 N HCl (100:3 v/v), two 12-hr periods): About 1 mg
- neurotensin formed [4, 8]: 4.3 mg
- recovered [Gln^4 ]-neurotensin [4, 8]: 4.2 mg
- stability under the isolation conditions ([4]; acetone 1 N HCl (100:3 v/v)): hydrolyzed or converted to neurotensin
- Hyperglycemic Assay, plasma glucose ([5]; 25 picomoles/100 g body weight via tail vein): 15±5 mg %
- Hyperglycemic Assay, plasma glucose ([5]; 50 picomoles/100 g body weight via tail vein): 34±4 mg %
- Hyperglycemic Assay, plasma glucose ([5]; 100 picomoles/100 g body weight via tail vein): 116 mg %
- % Cross Ractivity (Ab #4, #6) [6]: 90-100%
- -ΔSystemic Blood Pressure [7]: 42 ± 8 mm HG
- action in the peripheral vasculature ([1]; anesthetized dogs): delayed vasoconstriction which is prominent is subcutaneous adipose tissue
- blood glucose concentration ([1]; anesthetized dogs): increased blood glucose concentration
- cardiac action ([1]; anesthetized dogs): no cardiac action
- action in the peripheral vasculature ([1]; anesthetized dogs, listed as [Gln]^4 -NT): both vasodilator and vasoconstrictor actions
- lipid metabolism in adipose tissue ([1]; subcutaneous adipose tissue): no evidence of a change in lipid metabolism in adipose tissue
